Read-outs that look alike come from different tables or passages of the source.
Legend:
NMT1 enzyme = target: T1, NMT1 enzyme (Homo sapiens, UniProt P30419); experiment: Inhibitory activity on NMT1 enzyme catalysis (fluorescence intensity assay); assay type: biochemical
T1 sequence (P30419 1-496): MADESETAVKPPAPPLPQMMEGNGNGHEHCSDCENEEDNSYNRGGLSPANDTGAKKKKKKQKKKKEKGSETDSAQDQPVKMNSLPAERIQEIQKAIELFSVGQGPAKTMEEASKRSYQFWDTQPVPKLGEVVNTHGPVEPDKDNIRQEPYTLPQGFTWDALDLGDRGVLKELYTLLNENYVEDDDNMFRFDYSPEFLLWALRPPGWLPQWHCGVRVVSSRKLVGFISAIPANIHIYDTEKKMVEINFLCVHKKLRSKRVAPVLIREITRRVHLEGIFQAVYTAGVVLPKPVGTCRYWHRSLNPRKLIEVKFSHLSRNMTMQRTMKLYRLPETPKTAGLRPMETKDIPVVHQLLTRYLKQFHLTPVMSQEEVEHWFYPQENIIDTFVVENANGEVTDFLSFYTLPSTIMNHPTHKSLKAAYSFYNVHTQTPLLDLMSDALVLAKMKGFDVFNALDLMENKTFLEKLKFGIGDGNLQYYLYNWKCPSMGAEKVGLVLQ
Experimental: This study evaluated the ability of the compounds of the invention to inhibit NMT1 catalytic activity in vitro. […] The final concentration of the NMT1 enzyme was 6 nM, the final concentration of CPM (Reactive thiol fluorescence probe, Invitrogen, D346) was 1 µM, the final concentration of HSPP60 SRC was 20 µM, and the final concentration of DMSO was 0.5%.
Compounds were dissolved in DMSO to obtain 10 mM stock solutions. Dose-response solutions were prepared with a top endpoint compound concentration of 3 mM, followed by three-fold serial dilutions in DMSO, totaling ten data points. […] Then, 2.5 µL of the NMT1 enzyme working solution was added to the 384-well assay plate, followed by incubation at 25 °C for 10 minutes. Subsequently, 5 µL of the CPM and myristoyl-CoA working solution was added, the plate was centrifuged at 1000 rpm for 1 minute, and then 2.5 µL of the HSPP60 SRC working solution was added to initiate the reaction. The reaction was incubated at 25 °C for 45 minutes.
The IC50 curve of the compounds was fitted using the software XLfit 5.5.0 according to the nonlinear regression equation.

MV-4-11 cells = experiment: Anti-proliferative activity against MV-4-11 cells (cell viability chemiluminescence); assay type: cell-based; conditions: MV-4-11 human monocytic leukemia cells, three days of exposure
Experimental: This study utilized a cell proliferation assay to analyze the cytotoxicity of MV-4-11 human monocytic leukemia cells after three days of exposure to NMT1 inhibitors. The MV-4-11 cell line was purchased from Nanjing Cobuilder Biotechnology Co., Ltd., and cultured in IMDM medium (Viva cell) in an incubator (Thermo) at 37 °C with 5% CO2. In this experiment, NMT1 inhibitors were dissolved in DMSO to obtain 600 µM stock solutions. Dose-response solutions were prepared with a top endpoint compound concentration of 3 µM, followed by three-fold serial dilutions in DMSO, totaling eight data points. The final concentration of DMSO was 0.5%.
MV-4-11 cells were seeded into a white 96-well plate, 80 µL of cell suspension per well, containing 6000 MV-4-11 cells. The cell plate was placed in the CO2 incubator for overnight culture. Then, 20 µL of NMT1 inhibitor solutions at different concentrations were added to the wells. The 96-well plate was placed back into the incubator for three days. Another cell plate was prepared, and the signal was read on the day of drug addition to serve as the maximum value (Max value in the equation below) for data analysis. To this cell plate, 25 µL of cell viability chemiluminescence detection reagent was added per well, followed by incubation at room temperature for 10 minutes to stabilize the luminescence signal. A multi-label analyzer was used for reading.
The raw data were converted into inhibition rates using the equation (Sample - Min) / (Max - Min) * 100%. The IC50 values were then determined by fitting a four-parameter curve (using the "log(inhibitor) vs. response - Variable slope" model in GraphPad Prism). Min: wells treated with 0.5% DMSO; Max: Day 0 wells. Table 1 provides the inhibitory activity of the compounds of the invention on MV-4-11 cell proliferation. Table 1: Compound Inhibitory Activity against NMT1 Enzyme (IC50) and Anti-proliferative Activity against MV-4-11 Cell line (IC50)

[1] = 6 nM NMT1 enzyme, 1.25 µM myristoyl-CoA, 20 µM HSPP60 SRC peptide, 45 minutes at 25 °C, read-out: NMT1 (IC50)

Structure (SMILES) | IC50 (NMT1 enzyme; [1]) [nM] | IC50 (MV-4-11 cells; MV4-11, 72 h) [nM] | further results
Cc1c(NS(=O)(=O)c2c(Cl)cc(-c3ccc4sc5c(c4c3)CNCC5)cc2Cl)c(C2CC2)nn1C [Compound 4] | 3.64 | 25.8 | –
Cc1c(NS(=O)(=O)c2c(Cl)cc(-c3ccc4sc5c(c4c3)CNCC5)cc2Cl)c(CO)nn1C [Compound 14] | 7.89 | 145 | –
COCc1nn(C)c(C)c1NS(=O)(=O)c1c(Cl)cc(-c2ccc3sc4c(c3c2)CNCC4)cc1Cl [Compound 15] | – | – | IC50 (NMT1 enzyme): 4.73 nM; IC50 (MV-4-11 cells; Homo sapiens, MV4-11, 72 h): 78.6 nM
Cc1c(NS(=O)(=O)c2c(Cl)cc(-c3ccc4sc5c(c4c3)CNCC5)cc2Cl)c(CF)nn1C [Compound 16] | 4.67 | 58.5 | –
CCc1nn(C)c(C)c1NS(=O)(=O)c1c(Cl)cc(-c2ccc3oc4c(c3c2)CNCC4)cc1Cl [Compound 46] | 3.96 | 18.8 | –
Cc1nn(C)c(C)c1NS(=O)(=O)c1c(Cl)cc(-c2ccc3oc4c(c3c2)CNCC4)cc1Cl [Compound 47] | 4.17 | 23.1 | –
Cc1c(NS(=O)(=O)c2c(Cl)cc(-c3ccn4nc5c(c4c3)CNCC5)cc2Cl)c(CC(C)C)nn1C [Compound 48] | 4.2 | 36.7 | –
CCc1nn(C)c(C)c1NS(=O)(=O)c1c(Cl)cc(-c2ccn3nc4c(c3c2)CNCC4)cc1Cl [Compound 49] | 3.64 | 16.8 | –
Cc1nn(C)c(C)c1NS(=O)(=O)c1c(Cl)cc(-c2ccn3nc4c(c3c2)CNCC4)cc1Cl [Compound 50] | 3.79 | 21.9 | –
CCc1nn(C)c(C)c1NS(=O)(=O)c1c(Cl)cc(-c2ccc3sc4c(c3c2)CCNC4)cc1Cl [Compound 55] | 3.97 | 26.2 | –
Cc1nn(C)c(C)c1NS(=O)(=O)c1c(Cl)cc(-c2ccc3sc4c(c3c2)CCNC4)cc1Cl [Compound 56] | 4.21 | 29.7 | –
Cc1c(NS(=O)(=O)c2c(Cl)cc(-c3ccc4c(c3)N3CCNC[C@H]3CO4)cc2Cl)c(CC(C)C)nn1C [Compound 57] | – | – | IC50 (NMT1 enzyme): 8.76 nM; IC50 (MV-4-11 cells; Homo sapiens, MV4-11, 72 h): 144 nM
Cc1c(NS(=O)(=O)c2c(Cl)cc(-c3ccc4c(c3)N3CCNC[C@@H]3CO4)cc2Cl)c(CC(C)C)nn1C [Compound 60] | – | – | IC50 (NMT1 enzyme): 7.95 nM; IC50 (MV-4-11 cells; Homo sapiens, MV4-11, 72 h): 152 nM
Cc1c(NS(=O)(=O)c2c(Cl)cc(N3CCc4sc5c(c4C3)CNCC5)cc2Cl)c(CC(C)C)nn1C [Compound 63, 2,6-dichloro-4-(3,4,6,7,8,9-hexahydrothieno[3,2-c:4,5-c']dipyridine-2(1H)-yl)-N-(3-isobutyl-1,5-dimethyl-1H-pyrazol-4-yl)benzenesulfonamide] | 3.35 | 16.7 | –
CCc1nn(C)c(C)c1NS(=O)(=O)c1c(Cl)cc(N2CCc3sc4c(c3C2)CNCC4)cc1Cl [Compound 64] | 2.97 | 7.36 | –
Cc1nn(C)c(C)c1NS(=O)(=O)c1c(Cl)cc(N2CCc3sc4c(c3C2)CNCC4)cc1Cl [Compound 65] | 3.51 | 21.1 | –
Cc1c(NS(=O)(=O)c2c(Cl)cc(N3CCn4nc5c(c4C3)CNCC5)cc2Cl)c(CC(C)C)nn1C [Compound 69] | 3.75 | 21.9 | –
CCc1nn(C)c(C)c1NS(=O)(=O)c1c(Cl)cc(N2CCn3nc4c(c3C2)CNCC4)cc1Cl [Compound 70] | 3.46 | 15.2 | –
Cc1nn(C)c(C)c1NS(=O)(=O)c1c(Cl)cc(N2CCn3nc4c(c3C2)CNCC4)cc1Cl [Compound 71] | 3.79 | 25.9 | –
Cc1nn(C)c(C)c1NS(=O)(=O)c1ccc(-c2ccc3sc4c(c3c2)CNCC4)cc1Cl [Compound B1] | 2.67 | 14.4 | –
Cc1nn(C)c(C)c1NS(=O)(=O)c1ccc(-c2ccc3oc4c(c3c2)CNCC4)cc1Cl [Compound B3] | 3.1 | 21.9 | –

Structure (SMILES) | IC50 (NMT1 enzyme; [1]) [nM] | IC50 (MV-4-11 cells; MV4-11, 72 h) [nM] | further results
Cc1nn(C)c(C)c1NS(=O)(=O)c1ccc(-c2ccc3sc4c(c3c2)CNCC4)cc1 [Compound B4] | 2.94 | 15.8 | –
Cc1nn(C)c(C)c1NS(=O)(=O)c1ccc(-c2ccc3oc4c(c3c2)CNCC4)cc1 [Compound B6] | 3.76 | 23.3 | –
CCc1nn(C)c(C)c1NS(=O)(=O)c1ccc(-c2ccc3sc4c(c3c2)CNCC4)cc1Cl [Compound B7] | 2.93 | 9.82 | –
CCc1nn(C)c(C)c1NS(=O)(=O)c1ccc(-c2ccc3oc4c(c3c2)CNCC4)cc1Cl [Compound B9] | 2.52 | 13.5 | –
CCc1nn(C)c(C)c1NS(=O)(=O)c1ccc(-c2ccc3sc4c(c3c2)CNCC4)cc1 [Compound B10] | 2.39 | 10.1 | –
CCc1nn(C)c(C)c1NS(=O)(=O)c1ccc(-c2ccc3oc4c(c3c2)CNCC4)cc1 [Compound B12] | 2.98 | 17.8 | –
Cc1c(NS(=O)(=O)c2ccc(-c3ccc4oc5c(c4c3)CNCC5)cc2Cl)c(CC(C)C)nn1C [Compound B14] | 3.06 | 25.9 | –
Cc1c(NS(=O)(=O)c2ccc(-c3ccc4oc5c(c4c3)CNCC5)cc2)c(CC(C)C)nn1C [Compound B16] | 3.84 | 32.4 | –
Cc1c(NS(=O)(=O)c2ccc(-c3ccc4sc5c(c4c3)CNCC5)cc2Cl)c(CC#N)nn1C [Compound B19] | 3.07 | 21.7 | –
Cc1c(NS(=O)(=O)c2ccc(-c3ccc4sc5c(c4c3)CCNC5)cc2Cl)c(CC#N)nn1C [Compound B20] | 3.56 | 34.9 | –
Cc1c(NS(=O)(=O)c2c(Cl)cc(-c3ccc4sc5c(c4c3)CCNC5)cc2Cl)c(CC2CC2)nn1C [Compound B25] | – | – | IC50 (NMT1 enzyme; read-out: NMT1 (IC50), 6 nM NMT1 enzyme, 1.25 µM myristoyl-CoA, 20 µM HSPP60 SRC peptide, 45 minutes at 25 °C): 2.62 nM; IC50 (MV-4-11 cells; Homo sapiens, MV4-11, 72 h): 10.4 nM
Cc1c(NS(=O)(=O)c2ccc(-c3ccc4sc5c(c4c3)CNCC5)cc2Cl)c(CC2CC2)nn1C [Compound B27] | 2.08 | 9.68 | –
Cc1c(NS(=O)(=O)c2ccc(-c3ccc4oc5c(c4c3)CNCC5)cc2Cl)c(CC2CC2)nn1C [Compound B29] | 3.6 | 17.4 | –
Cc1c(NS(=O)(=O)c2ccc(-c3ccc4sc5c(c4c3)CNCC5)cc2)c(CC2CC2)nn1C [Compound B30] | 2.59 | 12.3 | –
Cc1c(NS(=O)(=O)c2c(Cl)cc(-c3ccc4oc5c(c4c3)CNCC5)cc2Cl)c(CC(F)(F)F)nn1C [Compound B34] | 5.03 | 61.8 | –
Cc1c(NS(=O)(=O)c2c(Cl)cc(N3CCc4oc5c(c4C3)CNCC5)cc2Cl)c(CC(F)(F)F)nn1C [Compound B36] | 2.75 | 26.2 | –
Cc1c(NS(=O)(=O)c2ccc(-c3ccc4sc5c(c4c3)CNCC5)cc2Cl)c(CC(F)(F)F)nn1C [Compound B37] | 2.21 | 16.6 | –
Cc1c(NS(=O)(=O)c2ccc(-c3ccc4sc5c(c4c3)CNCC5)cc2)c(CC(F)(F)F)nn1C [Compound B40] | – | – | IC50 (NMT1 enzyme): 2.7 nM; IC50 (MV-4-11 cells; Homo sapiens, MV4-11, 72 h): 11.3 nM
Cc1c(NS(=O)(=O)c2ccc(-c3ccc4sc5c(c4c3)CCNC5)cc2Cl)c(CC(F)F)nn1C [Compound B60] | – | 62.8 | –
Cc1c(NS(=O)(=O)c2c(Cl)cc(-c3ccnc(N4CCNCC4)c3)cc2Cl)c(CC(C)C)nn1C [PCLX-001, reference compound] | – | – | IC50 (MV-4-11 cells; Homo sapiens, MV4-11, 72 h): 75.3 nM; IC50 (MV-4-11 cells): 74.3 nM

Source: EP4810492A1, “NMT INHIBITOR, PREPARATION METHOD THEREFOR, AND USE THEREOF” (Nanjing Synnocare Pharmaceutical Technology Co., Ltd., priority 2023, dated 2025)
